The source of these data is patent EP0129667A1, “Compounds and pharmaceutical compositions for treatment of hypoovarianism” (Takeda Chemical Industries, Ltd., priority 1983, dated 1985).

Data set [1] relates to young oophorectomized rats. The data set can be described thus: E activity-potentiating effect in young oophorectomized rats (uterine wet weight). Format: in vivo, Spraque-Dawley rats. The conditions noted are these: 3 days; for increase of uterine weight by the compound alone: without estrone; for Uterine wet weight (mg ± S.D.): autopsy on 4th day. As for the experimental part: Spraque-Dawley rats, 33 days of age and 11 days after oophorectomy for elimination of endogenous E activity, were assigned to groups of 5 to 7 individuals and treated subcutaneously with solutions of esterone in sesame oil or orally with suspensions of Compound A in 1% hydroxypropylcellulose solution, either independently or in combination, for 3 days. On the 4th day, each animal was autopsied and its uterine wet weight was recorded. […] Spraque-Dawley rats, 33 days of age and 11 days after oophorectomy for elimination of endogenous E activity, were assigned to groups of 5 to 7 individuals and treated subcutaneously with solutions of esterone in sesame oil or orally with suspensions of Compound B in 1% hydroxypropylcellulose solution, either independently or in combination, for 3 days. On the 4th day, each animal was autopsied and its uterine wet weight was recorded.

In a further data set the test system is Spraque-Dawley rats. Briefly: Acute toxicity in rats. It is filed as in vivo. The conditions noted are these: 5-week-old Spraque-Dawley rats, 14 days observation, LD50 could not be calculated. On the procedure:
(§1) Five-week-old ICR mice and 5-week-old Spraque-Dawley rats were used in groups of 10 males and 10 females, and suspensions of compound A or B in olive oil were administered orally [2,500, 5,000 and 10,000 mg/kg of each compound] or subcutaneously (1,250, 2,500 and 5,000 mg/kg). The animals were kept under observation for 14 days.

The test system of another data set is ICR mice. The data set can be described thus: Acute toxicity in mice. Format: in vivo. The conditions noted are these: 5-week-old ICR mice, 14 days observation, LD50 could not be calculated. As for the experimental part: as §1
The mark [2] stands for this setting: oral 2,500, 5,000 and 10,000 mg/kg in olive oil.
Where [3] appears, read: subcutaneous 1,250, 2,500 and 5,000 mg/kg in olive oil.

As for `O=c1c(-c2ccccc2)coc2cc(O)ccc12` [Compound A, 7-hydroxy-isoflavone], in data set [1] (Compound A at 50 and 100 mg/kg oral with estrone subcutaneous), the “potentiation of the uterine weight increasing action of estrone” value is on record as “potentiated the uterine weight increasing action of estrone”. In addition, the “increase of uterine weight by the compound alone” value in data set [1] (Compound A at 50 and 100 mg/kg oral) is given as “did not cause an increase of uterine weight”. Besides, the “Uterine wet weight (mg ± S.D.)” value in data set [1] (Table 1, Compound A 50 mg/kg daily oral, estrone 0) is reported as 35.3 ± 1.7 mg; in data set [1] (Table 1, Compound A 100 mg/kg daily oral, estrone 0), 35.9 ± 1.0 mg; in data set [1] (Table 1, estrone 1.0 µg/kg daily subcutaneous + Compound A 50 mg/kg daily oral), 60.8 ± 4.1 mg; in data set [1] (Table 1, estrone 1.0 µg/kg daily subcutaneous + Compound A 100 mg/kg daily oral) it was 70.6 ± 2.7 mg.
Consider `CC(C)Oc1ccc2c(=O)c(-c3ccccc3)coc2c1` [Compound B, 7-isopropyloxy-isoflavone], for which, in data set [1] (Compound B at 50 and 200 mg/kg oral with estrone subcutaneous), the “potentiation of the uterine weight increasing action of estrone” value is listed as “potentiated the uterine weight increasing action of estrone”. In data set [1] (Compound B at 50 and 200 mg/kg oral), the “increase of uterine weight by the compound alone” value is reported as “did not cause an increase of uterine weight”. The “Uterine wet weight (mg ± S.D.)” value in data set [1] (Table 2, Compound B 50 mg/kg daily oral, estrone 0) is reported as 32.2 ± 1.3 mg; in data set [1] (Table 2, Compound B 200 mg/kg daily oral, estrone 0), 34.7 ± 1.2 mg; in data set [1] (Table 2, estrone 0.5 µg/kg daily subcutaneous + Compound B 50 mg/kg daily oral) it was 39.6 ± 2.4 mg; in data set [1] (Table 2, estrone 0.5 µg/kg daily subcutaneous + Compound B 200 mg/kg daily oral), 51.3 ± 5.3 mg; in data set [1] (Table 2, estrone 1.0 µg/kg daily subcutaneous + Compound B 50 mg/kg daily oral) it was 58.2 ± 2.6 mg; in data set [1] (Table 2, estrone 1.0 µg/kg daily subcutaneous + Compound B 200 mg/kg daily oral), 71.5 ± 7.4^+ mg. Further, the “deaths and toxic symptoms (acute toxicity)” value with Spraque-Dawley rats (setting [2]), in the data set on Spraque-Dawley rats (setting [3]), with ICR mice (setting [2]) and with ICR mice (setting [3]) was “None of the groups showed deaths nor toxic symptoms” throughout.
On to `C[C@]12CC[C@@H]3c4ccc(O)cc4CC[C@H]3[C@@H]1CCC2=O` [estrone, reference compound], for which the “Uterine wet weight (mg ± S.D.)” value was determined as 52.6 ± 2.3 mg in data set [1] (Table 1, estrone 1.0 µg/kg daily subcutaneous alone (Compound A 0)); 36.3 ± 1.9 mg in data set [1] (Table 2, estrone 0.5 µg/kg daily subcutaneous alone (Compound B 0)); 51.9 ± 4.2 mg in data set [1] (Table 2, estrone 1.0 µg/kg daily subcutaneous alone (Compound B 0)).
